“And” between values parts separate entries of the source, which are not always exact repeats. Equal entries are not always repeated. Where two headings read alike, the source gives them in different places.
Key:
HepG2 cells [1] = test: HepG2 growth inhibition assay; format: cell-based; conditions: Homo sapiens, 10-point dilution series, 48 h, Cell Titre-Glo
Description: HepG2 cells were cultured in Dulbeccos modified eagle's medium (DMEM) supplemented with 10% fetal calf serum (FCS), in a humidified incubator at 37 °C and 5% CO2. Ten-point compound titration assays were performed by treating cells (1 × 10^3) for 48 h in 384 well tissue culture treated plates (Greiner). Cytotoxicity was determined using Cell Titer Glo (Promega) and calculated as a percentage using DMSO as a positive growth control and 10 μM Bortezomib as a negative growth control. EC50 values were calculated using a 4-parameter log dose, non-linear regression analysis, with sigmoidal dose response (variable slope) curve fit using Graph Pad Prism (version 6.05). 0 and 100 constraint parameters were used for curve fitting. […]

HepG2 cells [2] = tested on: HepG2 cells; set-up: method as in Pingaew et al., 2014; conditions: incubation time of 48 h, MTT assay ref Pingaew et al., 2014; read-out: HepG2 EC50 literature value; cited from earlier work
[3] = biological target: P. falciparum Rh5 (Rh5 – basigin interaction) (Plasmodium falciparum, UniProt Q8IFM5); test: biochemical; format: binding; conditions: 11 pt titration of the 45 hits; flag (POORFIT given as ~); two lines per compound; read-out: Basigin_IC50_Assay_Alpha IC50
[4] = AlphaScreen TruHits counterscreen assay; conditions: 11 pt titration; flag (POORFIT given as ~); read-out: Basigin_IC50_Counter_TruHits IC50
Description: The counterscreen assay was conducted using AlphaScreen TruHits kit (PerkinElmer). Biotinylated acceptor beads and Streptavidin donor beads were both diluted in assay buffer (final concentration of 10 μg/mL). Using the Combi-multidrop, 10 μL of each bead solution (20 μg/mL prepared in assay buffer) was added to every well of the assay plate under subdued lighting. Compound addition and assay readout was performed as described above.

[5] = Basigin_IC50_Counter_Alpha counterscreen; conditions: 11 pt titration; flag (POORFIT given as ~)
Text: Supplement mmc3.xlsx, sheet "Report" | column: Basigin_IC50_Counter_Alpha IC50

Chain of P. falciparum Rh5 (Rh5 – basigin interaction) (Q8IFM5 24-526): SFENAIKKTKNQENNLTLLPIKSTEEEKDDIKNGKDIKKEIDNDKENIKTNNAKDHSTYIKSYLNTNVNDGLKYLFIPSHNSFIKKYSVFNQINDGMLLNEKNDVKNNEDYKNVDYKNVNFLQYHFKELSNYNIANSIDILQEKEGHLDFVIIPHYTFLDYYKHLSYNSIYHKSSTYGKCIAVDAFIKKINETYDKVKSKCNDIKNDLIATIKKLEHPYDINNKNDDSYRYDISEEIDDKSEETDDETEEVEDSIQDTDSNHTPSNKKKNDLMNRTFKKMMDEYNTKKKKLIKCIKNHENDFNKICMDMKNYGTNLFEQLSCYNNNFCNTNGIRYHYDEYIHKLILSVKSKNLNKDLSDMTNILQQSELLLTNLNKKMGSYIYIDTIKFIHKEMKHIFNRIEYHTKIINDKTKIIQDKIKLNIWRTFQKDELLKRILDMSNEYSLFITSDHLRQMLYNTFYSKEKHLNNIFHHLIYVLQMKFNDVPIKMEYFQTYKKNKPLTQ

SMILES: COc1cc([C@@H]2c3cc4c(cc3[C@@H](O[C@@H]3O[C@@H]5CO[C@@H](C)O[C@H]5[C@H](O)[C@H]3O)[C@H]3COC(=O)[C@H]23)OCO4)cc(OC)c1O [Etoposide, reference compound]
- EC50 (HepG2 cells [1]): 15.9 µM
- EC50 (HepG2 cells [2]): 30.2 µM

SMILES: CCCN1CCc2cc(O)cc3c2[C@H]1Cc1ccc(O)c(O)c1-3 [WEHI-1215052]
- IC50 [3]: 7.45 µM and 8.43 µM
- IC50 [4]: > 25 µM
- IC50 [5]: > 25 µM

SMILES: CC(=O)N1CCN(c2ccc(OC[C@@H]3CO[C@@](Cn4ccnc4)(c4ccc(Cl)cc4Cl)O3)cc2)CC1 [WEHI-1215227]
- IC50 [3]: 15.4 µM and 13.9 µM
- IC50 [4]: 23.2 µM and 22.1 µM
- IC50 [5]: 13.5 µM and 12.1 µM

SMILES: CN1CCc2cccc3c2[C@H]1Cc1ccc(O)c(O)c1-3 [WEHI-1216442]
- IC50 [3]: ~4.07 µM and 4.14 µM
- IC50 [4]: > 25 µM
- IC50 [5]: > 25 µM

SMILES: O=C(Nc1cccc2c(=O)cc(-c3nnn[nH]3)oc12)c1ccc(OCCCCc2ccccc2)cc1 [WEHI-1216506]
- IC50 [3]: 5.28 µM and ~5.6 µM
- IC50 [4]: 24.8 µM and > 25 µM
- IC50 [5]: 10.4 µM and 12.5 µM

SMILES: COCCCOc1ccnc(C[S+]([O-])c2nc3ccccc3[nH]2)c1C (centres unmarked) [WEHI-1216602]
- IC50 [3]: 1.08 µM and 1.23 µM
- IC50 [4]: > 25 µM
- IC50 [5]: > 25 µM

From PMC7645381, “Development and application of a high-throughput screening assay for identification of small molecule inhibitors of the P. falciparum reticulocyte binding-like homologue 5 protein” (International Journal for Parasitology: Drugs and Drug …, 2020)
